ChEMBL document CHEMBL1128634, “Piperidine-ether based hNK1 antagonists 2: Investigation of the effect of N-substitution” (Bioorg Med Chem Lett, 1995)

Key:
[1] = pKa value of the compound; format: physicochemical
[2] = Inhibition of [3H]diltiazem binding to L-type calcium channel of rabbit skeletal muscle at 30 uM; format: functional; details: Oryctolagus cuniculus, Muscle tissue
[3] = Inhibition of [3H]diltiazem binding to L-type calcium channel of rabbit skeletal muscle; format: functional, tissue-based, Oryctolagus cuniculus, Muscle tissue
Substance-P receptor = Substance-P receptor (Homo sapiens, UniProt P25103); assay: Displacement of [125I]- Substance P from human Neurokinin 1 (hNK1) receptor expressed in CHO cells; format: cell-based
Substance-P receptor, sequence (P25103 whole entry): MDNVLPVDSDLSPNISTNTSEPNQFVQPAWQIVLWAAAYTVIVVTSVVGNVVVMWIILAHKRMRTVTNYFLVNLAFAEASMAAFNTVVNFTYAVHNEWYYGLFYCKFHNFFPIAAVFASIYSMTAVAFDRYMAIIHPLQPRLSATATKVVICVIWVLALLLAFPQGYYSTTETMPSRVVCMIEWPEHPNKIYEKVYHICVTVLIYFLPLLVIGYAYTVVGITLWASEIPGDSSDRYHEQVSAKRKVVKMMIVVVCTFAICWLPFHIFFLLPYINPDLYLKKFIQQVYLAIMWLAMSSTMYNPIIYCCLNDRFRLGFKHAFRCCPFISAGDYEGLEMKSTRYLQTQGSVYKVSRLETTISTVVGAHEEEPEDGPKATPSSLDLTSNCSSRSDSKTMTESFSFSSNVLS

Neuromedin-K receptor = target: T1, Neuromedin-K receptor (Homo sapiens, UniProt P29371); assay: Tested for inhibition of human Tachykinin receptor 3
T1 sequence (P29371 whole entry): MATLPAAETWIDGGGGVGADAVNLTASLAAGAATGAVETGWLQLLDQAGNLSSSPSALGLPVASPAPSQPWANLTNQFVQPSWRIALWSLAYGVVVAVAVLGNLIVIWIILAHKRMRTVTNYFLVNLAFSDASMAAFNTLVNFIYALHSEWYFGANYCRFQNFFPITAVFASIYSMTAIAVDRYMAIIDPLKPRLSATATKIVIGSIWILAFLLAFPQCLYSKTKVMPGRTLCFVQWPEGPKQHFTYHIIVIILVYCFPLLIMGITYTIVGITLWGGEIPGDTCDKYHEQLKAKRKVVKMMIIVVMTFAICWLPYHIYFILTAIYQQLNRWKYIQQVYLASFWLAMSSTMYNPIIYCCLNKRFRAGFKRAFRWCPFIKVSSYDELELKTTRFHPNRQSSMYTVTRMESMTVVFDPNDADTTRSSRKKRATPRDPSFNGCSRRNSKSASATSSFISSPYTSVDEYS

Substance-K receptor = target: T2, Substance-K receptor (Homo sapiens, UniProt P21452); assay: Tested for inhibition of human Neurokinin Tachykinin receptor 2.
T2 sequence (P21452 whole entry): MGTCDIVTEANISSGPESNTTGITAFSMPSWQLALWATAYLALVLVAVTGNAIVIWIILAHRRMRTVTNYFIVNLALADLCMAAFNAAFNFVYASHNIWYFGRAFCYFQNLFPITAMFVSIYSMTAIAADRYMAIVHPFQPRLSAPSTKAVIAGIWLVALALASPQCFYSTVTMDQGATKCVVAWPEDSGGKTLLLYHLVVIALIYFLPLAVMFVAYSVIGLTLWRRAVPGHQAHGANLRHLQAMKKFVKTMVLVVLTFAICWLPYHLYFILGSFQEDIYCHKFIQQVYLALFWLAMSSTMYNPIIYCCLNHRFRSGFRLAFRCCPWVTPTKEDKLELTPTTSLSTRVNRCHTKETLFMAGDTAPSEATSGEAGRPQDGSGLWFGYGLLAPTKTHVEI

[4] = Inhibition of [3H]diltiazem binding to L-type calcium channel of rabbit skeletal muscle at 5 uM; format: functional; details: Oryctolagus cuniculus, Muscle tissue

NC(=O)CN1CCC[C@H](OCc2cc(C(F)(F)F)cc(C(F)(F)F)c2)[C@@H]1c1ccccc1
pKa [1]: 5.4 | inhibition at 30 µM [2]: 16%

FC(F)(F)c1cc(CO[C@H]2CCCN[C@H]2c2ccccc2)cc(C(F)(F)F)c1
IC50 [3]: 760 nM | IC50 (Substance-P receptor): 0.87 nM | IC50 (Neuromedin-K receptor): > 1000 nM | IC50 (Substance-K receptor): > 1000 nM

O=C(O)CN1CCC[C@H](OCc2cc(C(F)(F)F)cc(C(F)(F)F)c2)[C@@H]1c1ccccc1
inhibition at 5 µM [4]: 7%

COC(=O)C(=O)N1CCC[C@H](OCc2cc(C(F)(F)F)cc(C(F)(F)F)c2)[C@@H]1c1ccccc1
inhibition at 5 µM [4]: 0%

CN1CCC[C@H](OCc2cc(C(F)(F)F)cc(C(F)(F)F)c2)[C@@H]1c1ccccc1
IC50 [3]: 720 nM

CNC(=O)CN1CCC[C@H](OCc2cc(C(F)(F)F)cc(C(F)(F)F)c2)[C@@H]1c1ccccc1
inhibition at 5 µM [4]: 0%

NC(=O)C(=O)N1CCC[C@H](OCc2cc(C(F)(F)F)cc(C(F)(F)F)c2)[C@@H]1c1ccccc1
inhibition at 5 µM [4]: 0% | IC50 (Substance-P receptor): 25 nM

CC(=O)N1CCC[C@H](OCc2cc(C(F)(F)F)cc(C(F)(F)F)c2)[C@@H]1c1ccccc1
inhibition at 5 µM [4]: 0%

NC(=O)CCCN1CCC[C@H](OCc2cc(C(F)(F)F)cc(C(F)(F)F)c2)[C@@H]1c1ccccc1
inhibition at 5 µM [4]: 98%

CN(C)C(=O)CN1CCC[C@H](OCc2cc(C(F)(F)F)cc(C(F)(F)F)c2)[C@@H]1c1ccccc1
inhibition at 5 µM [4]: 0%

FC(F)(F)c1cc(CO[C@H]2CCCN(Cc3ccccc3)[C@H]2c2ccccc2)cc(C(F)(F)F)c1
IC50 [3]: 4.1 nM

COC(=O)CN1CCC[C@H](OCc2cc(C(F)(F)F)cc(C(F)(F)F)c2)[C@@H]1c1ccccc1
IC50 [3]: 26 nM

NC(=O)CCN1CCC[C@H](OCc2cc(C(F)(F)F)cc(C(F)(F)F)c2)[C@@H]1c1ccccc1
pKa [1]: 6.5 | inhibition at 5 µM [4]: 98%

COc1ccccc1CN[C@H]1CCCN(CC(N)=O)[C@H]1c1ccccc1 (racemic)
IC50 (Substance-P receptor): 227 nM
